Experimental data reported in ChEMBL document CHEMBL5724914, “Linking interpersonal differences in gut microbiota composition and drug biotransformation activity” (2024).

How the values were obtained:
[1] = (§1) The drug is tested on Z-014 corresponding to rat gut metagenome with ENA study accession number: PRJEB37062 and ENA sample accession number: ERS12561814 for biotransformation under anaerobic condition. The drug concentrations were measured over 9 timepoints collected between 0 and 24 hours of incubation by liquid-chromatography-coupled mass spectrometry (LC–MS); settings: 2 µM
[2] = human gut metagenome, 24 h, 2 µM
[3] = human gut metagenome, 24 h, 2 µM; remark: listed apart in the source
[4] = as §1, with “Z-008” for “Z-014”, “to” for “to rat gut”, “ERS12561808” for “ERS12561814”; settings: 2 µM
[5] = as §1, with “on WLS-052” for “on Z-014”, “to human” for “to rat”, “number: ERS12561747” for “number: ERS12561814”; settings: 2 µM
[6] = human gut metagenome, 24 h, 2 µM; remark: listed apart in the source
[7] = as §1, with “on WLS-039” for “on Z-014”, “to human” for “to rat”, “number: ERS12561746” for “number: ERS12561814”; settings: 2 µM
[8] = as §1, with “on Z-006” for “on Z-014”, “to mouse” for “to rat”, “number: ERS12561806” for “number: ERS12561814”; settings: 2 µM
[9] = human gut metagenome, 24 h, 2 µM; remark: listed apart in the source
[10] = as §1, with “on WLS-010” for “on Z-014”, “to human” for “to rat”, “number: ERS12561743” for “number: ERS12561814”; settings: 2 µM
[11] = as §1, with “Z-019” for “Z-014”, “ERS12561818” for “ERS12561814”; settings: 2 µM
[12] = as §1, with “Z-012” for “Z-014”, “to” for “to rat gut”, “ERS12561812” for “ERS12561814”; settings: 2 µM
[13] = human gut metagenome, 24 h, 2 µM; remark: listed apart in the source
[14] = as §1, with “on WLS-310” for “on Z-014”, “to human” for “to rat”, “number: ERS12561785” for “number: ERS12561814”; settings: 2 µM
[15] = human gut metagenome, 24 h, 2 µM; remark: listed apart in the source
[16] = human gut metagenome, 24 h, 2 µM; remark: listed apart in the source
[17] = human gut metagenome, 24 h, 2 µM; remark: listed apart in the source
[18] = as §1, with “on WLS-098” for “on Z-014”, “to human” for “to rat”, “number: ERS12561754” for “number: ERS12561814”; settings: 2 µM
[19] = as §1, with “on WLS-170” for “on Z-014”, “to human” for “to rat”, “number: ERS12561762” for “number: ERS12561814”; settings: 2 µM
[20] = as §1, with “on Z-002” for “on Z-014”, “to rabbit” for “to rat”, “number: ERS12561802” for “number: ERS12561814”; settings: 2 µM
Further: call rule not given here.

SMILES | Bacterial Biotransformation [1] | Bacterial Biotransformation [2] | Bacterial Biotransformation [3] | Bacterial Biotransformation [4] | Bacterial Biotransformation [5] | Bacterial Biotransformation [6] | Bacterial Biotransformation [7] | Bacterial Biotransformation [8] | Bacterial Biotransformation [9] | Bacterial Biotransformation [10] | Bacterial Biotransformation [11] | Bacterial Biotransformation [12] | Bacterial Biotransformation [13] | Bacterial Biotransformation [14] | Bacterial Biotransformation [15] | Bacterial Biotransformation [16] | Bacterial Biotransformation [17] | Bacterial Biotransformation [18] | Bacterial Biotransformation [19] | Bacterial Biotransformation [20]
COc1cc2nc(N3CCN(C(=O)C4CCCO4)CC3)nc(N)c2cc1OC (stereo not given) [TERAZOSIN] | Compound NOT metabolized | Compound NOT metabolized | Compound NOT metabolized | Compound NOT metabolized | Compound NOT metabolized | Compound metabolized | Compound NOT metabolized | Compound NOT metabolized | Compound NOT metabolized | Compound NOT metabolized | Compound NOT metabolized | Compound NOT metabolized | Compound metabolized | Compound metabolized | Compound NOT metabolized | Compound NOT metabolized | Compound NOT metabolized | Compound metabolized | Compound NOT metabolized | Compound NOT metabolized
c1ccc2[nH]c(-c3cscn3)nc2c1 [THIABENDAZOLE] | Compound NOT metabolized | Compound NOT metabolized | Compound NOT metabolized | Compound NOT metabolized | Compound NOT metabolized | Compound NOT metabolized | Compound NOT metabolized | Compound NOT metabolized | Compound NOT metabolized | Compound NOT metabolized | Compound NOT metabolized | Compound NOT metabolized | Compound NOT metabolized | Compound NOT metabolized | Compound metabolized | Compound NOT metabolized | Compound NOT metabolized | Compound metabolized | Compound NOT metabolized | Compound NOT metabolized
COc1ccc(C(CN(C)C)C2(O)CCCCC2)cc1 (stereo not given) [VENLAFAXINE] | Compound NOT metabolized | Compound NOT metabolized | Compound NOT metabolized | Compound NOT metabolized | Compound NOT metabolized | Compound NOT metabolized | Compound NOT metabolized | Compound NOT metabolized | Compound NOT metabolized | Compound NOT metabolized | Compound NOT metabolized | Compound NOT metabolized | Compound NOT metabolized | Compound metabolized | Compound NOT metabolized | Compound NOT metabolized | Compound NOT metabolized | Compound NOT metabolized | Compound NOT metabolized | Compound NOT metabolized
C[C@@H](c1ncncc1F)[C@](O)(Cn1cncn1)c1ccc(F)cc1F [VORICONAZOLE] | Compound NOT metabolized | Compound metabolized | Compound metabolized | Compound NOT metabolized | Compound metabolized | Compound metabolized | Compound metabolized | Compound NOT metabolized | Compound metabolized | Compound metabolized | Compound NOT metabolized | Compound metabolized | Compound metabolized | Compound metabolized | Compound metabolized | Compound metabolized | Compound metabolized | Compound metabolized | Compound metabolized | Compound metabolized

The next lines start with the values.

Bacterial Biotransformation [1] | Bacterial Biotransformation [2] | Bacterial Biotransformation [3] | Bacterial Biotransformation [4] | Bacterial Biotransformation [5] | Bacterial Biotransformation [6] | Bacterial Biotransformation [7] | Bacterial Biotransformation [8] | Bacterial Biotransformation [9] | Bacterial Biotransformation [10] | Bacterial Biotransformation [11] | Bacterial Biotransformation [12] | Bacterial Biotransformation [13] | Bacterial Biotransformation [14] | Bacterial Biotransformation [15] | Bacterial Biotransformation [16] | Bacterial Biotransformation [17] | Bacterial Biotransformation [18] | Bacterial Biotransformation [19] | Bacterial Biotransformation [20] | SMILES
Compound NOT metabolized | Compound NOT metabolized | Compound NOT metabolized | Compound NOT metabolized | Compound NOT metabolized | Compound metabolized | Compound NOT metabolized | Compound NOT metabolized | Compound NOT metabolized | Compound NOT metabolized | Compound NOT metabolized | Compound NOT metabolized | Compound metabolized | Compound metabolized | Compound metabolized | Compound NOT metabolized | Compound NOT metabolized | Compound metabolized | Compound NOT metabolized | Compound metabolized | CCN(CC)CCNC(=O)c1cc(S(C)(=O)=O)ccc1OC [TIAPRIDE]
Compound NOT metabolized | Compound NOT metabolized | Compound NOT metabolized | Compound NOT metabolized | Compound NOT metabolized | Compound NOT metabolized | Compound NOT metabolized | Compound NOT metabolized | Compound NOT metabolized | Compound NOT metabolized | Compound NOT metabolized | Compound NOT metabolized | Compound NOT metabolized | Compound NOT metabolized | Compound NOT metabolized | Compound NOT metabolized | Compound NOT metabolized | Compound NOT metabolized | Compound NOT metabolized | Compound NOT metabolized | CC(C)(C)NC[C@H](O)COc1nsnc1N1CCOCC1.O=C(O)/C=C\C(=O)O [TIMOLOL MALEATE]
Compound NOT metabolized | Compound NOT metabolized | Compound NOT metabolized | Compound NOT metabolized | Compound NOT metabolized | Compound NOT metabolized | Compound NOT metabolized | Compound NOT metabolized | Compound NOT metabolized | Compound NOT metabolized | Compound NOT metabolized | Compound NOT metabolized | Compound NOT metabolized | Compound NOT metabolized | Compound NOT metabolized | Compound NOT metabolized | Compound NOT metabolized | Compound NOT metabolized | Compound NOT metabolized | Compound NOT metabolized | CC[C@@]1(O)C(=O)OCc2c1cc1n(c2=O)Cc2cc3c(CN(C)C)c(O)ccc3nc2-1 [TOPOTECAN]
Compound NOT metabolized | Compound NOT metabolized | Compound NOT metabolized | Compound NOT metabolized | Compound metabolized | Compound metabolized | Compound NOT metabolized | Compound NOT metabolized | Compound metabolized | Compound NOT metabolized | Compound NOT metabolized | Compound NOT metabolized | Compound metabolized | Compound metabolized | Compound NOT metabolized | Compound metabolized | Compound metabolized | Compound metabolized | Compound metabolized | Compound metabolized | CCOC(=O)C1=C[C@]2(CC)CCCN3CCc4c(n1c1ccccc41)[C@@H]32 [VINPOCETINE]
